Data as given in patent publication EP3325465B1, “PESTICIDALLY ACTIVE PYRAZOLE DERIVATIVES” (Syngenta Participations AG, priority 2015, dated 2017).
Like-named read-outs stand apart in the source and are kept apart here.

How the values were obtained:
Type in all cases: in vivo
[1] = tested on: Thrips tabaci (Onion thrips); assay: Thrips tabaci sunflower leaf disc spray test; details: foliar, 144 h, application rate of 200 ppm, mortality 6 days after infestation, mixed ages
From the text: (§1) The pesticidal/insecticidal properties of the compounds according to embodiments 1 or 2 can be illustrated via the following tests: Spodoptera littoralis (Egyptian cotton leaf worm) • Cotton leaf discs were placed onto agar in 24-well microtiter plates and sprayed with aqueous test solutions prepared from 10'000 ppm DMSO stock solutions. After drying the leaf discs were infested with five L1 larvae. […] Plutella xylostella (Diamond back moth): 24-well microtiter plates with artificial diet were treated with aqueous test solutions prepared from 10'000 ppm DMSO stock solutions by pipetting. After drying, the plates were infested with L2 larvae (10 to 15 per well). The samples were assessed for mortality and growth inhibition in comparison to untreated samples 5 days after infestation. […] Diabrotica balteata, (Corn root worm) • Maize sprouts placed onto an agar layer in 24-well microtiter plates were treated with aqueous test solutions prepared from 10'000 ppm DMSO stock solutions by spraying. After drying, the plates were infested with L2 larvae (6 to 10 per well). […] Thrips tabaci (Onion thrips): Sunflower leaf discs were placed on agar in 24-well microtiter plates and sprayed with aqueous test solutions prepared from 10'000 ppm DMSO stock solutions. After drying the leaf discs were infested with a thrips population of mixed ages. The samples were assessed for mortality 6 days after infestation. […] Tetranychus urticae (Two-spotted spider mite): Bean leaf discs on agar in 24-well microtiter plates were sprayed with aqueous test solutions prepared from 10'000 ppm DMSO stock solutions. After drying the leaf discs were infested with a mite population of mixed ages. The samples were assessed for mortality on mixed population (mobile stages) 8 days after infestation. […] Euschistus heros (Neotropical Brown Stink Bug): • Two weeks old soybean plants were sprayed in a turn table spray chamber with the diluted spray solutions. After drying 2 soybean seeds were added and plants were infested with 10 N2 nymphs of the neotropical brown stink bug Euschistus heros in plastic test boxes. The samples were assessed for mortality in comparison to untreated samples 5 days after infestation. • The following compounds gave at least 80% mortality of Euschistus heros at an application rate of 12.5 ppm: Compounds 3 , 4 , 8 , 39 , 43 , 44 , 46 , 75 , 76 , 77 , 78 , 79 , 80 , 81 , 82 , 88 , 90 , 93 and 95 . Myzus persicae (Green peach aphid): Sunflower leaf discs were placed on agar in a 24-well microtiter plate and sprayed with test solutions at an application rate of 200 ppm. After drying, the leaf discs were infested with an aphid population of mixed ages. After an incubation period of 6 DAT, samples were checked for mortality. The following compounds gave at least 50% mortality of Myzus persicae: Compounds 3 , 4 , 8 , 43 , 44 , 75 , 76 , 77 , 80 , 81 , 90 and 92 . Myzus persicae (Green peach aphid): • Test compounds were applied by pipette into 24 well plates and mixed with Sucrose solution. Application rate: 12.5ppm. The plates were closed with a stretched parafilm. A plastic stencil with 24 holes is placed onto the plate and infested pea seedlings were placed directly on the Parafilm. The infested plate is closed with a gel blotting paper and another plastic stencil and then turned upside down. […]

[2] = tested on: Euschistus heros (Neotropical Brown Stink Bug); assay: Euschistus heros soybean plant spray test, N2 nymphs; details: 120 h, read-out: mortality of Euschistus heros
From the text: as §1

[3] = tested on: Myzus persicae (Green peach aphid); assay: Myzus persicae sucrose solution / Parafilm feeding test; details: 120 h, read-out: mortality of Myzus persicae
From the text: as §1

[4] = tested on: Spodoptera littoralis (Egyptian cotton leaf worm); assay: Spodoptera littoralis cotton leaf disc spray test, L1 larvae; details: foliar, 72 h
From the text: as §1

[5] = tested on: Plutella xylostella (Diamond back moth); assay: Plutella xylostella artificial diet test, L2 larvae; details: 120 h, application rate of 200 ppm, mortality and growth inhibition 5 days after infestation
From the text: as §1

[6] = tested on: Diabrotica balteata, (Corn root worm); assay: Diabrotica balteata maize sprout spray test, L2 larvae; details: 96 h
From the text: as §1

[7] = tested on: Tetranychus urticae (Two-spotted spider mite); assay: Tetranychus urticae bean leaf disc spray test; details: foliar, 192 h, application rate of 200 ppm, mortality on mixed population (mobile stages) 8 days after infestation
From the text: as §1

[8] = tested on: Myzus persicae (Green peach aphid); assay: Myzus persicae sunflower leaf disc spray test; details: foliar, 144 h, read-out: mortality of Myzus persicae
From the text: as §1

[9] = application rate of 12.5 ppm, 5 days after infestation, N2 nymphs
[10] = application rate of 200 ppm, 3 days after infestation, L1 larvae, read-out: mortality
[11] = application rate of 200 ppm, 4 days after infestation, L2 larvae, read-out: mortality
[12] = application rate of 200 ppm, leaf disc spray, 6 DAT
[13] = Application rate: 12.5ppm, sucrose solution, 5 days after infestation

SMILES	pest or weed control at 200 ppm [1]	mortality at 12.5 ppm [2]	mortality at 12.5 ppm [3]	mortality at 200 ppm [4]	pest or weed control at 200 ppm [5]	mortality at 200 ppm [6]	pest or weed control at 200 ppm [7]	mortality at 200 ppm [8]	mortality at 12.5 ppm [2, 9]	mortality at 200 ppm [4, 10]	mortality at 200 ppm [6, 11]	mortality at 200 ppm [8, 12]	mortality at 12.5 ppm [3, 13]
Cn1nc(C(F)(F)C(F)(F)F)c(C(F)(F)F)c1-c1cc(-c2ccc(Cl)c(C(=O)NC3(C#N)CC3)c2)no1 [Compound 3, 2-chloro-N-(1-cyanocyclopropyl)-5-[5-[2-methyl-5-(1,1,2,2,2-pentafluoroethyl)-4-(trifluoromethyl)pyrazol-3-yl]isoxazol-3-yl]benzamide]	≥ 80%	≥ 80%	≥ 50%	≥ 80%	≥ 80%	≥ 80%	≥ 80%	≥ 50%	–	–	–	–	–
Cn1nc(C(F)(F)C(F)(F)F)c(C(F)(F)F)c1-c1cc(-c2ccc(Cl)c(C(=O)NC3CC3)c2)on1 [Compound 8, 2-chloro-N-cyclopropyl-5-[3-[2-methyl-5-(1,1,2,2,2-pentafluoroethyl)-4-(trifluoromethyl)pyrazol-3-yl]isoxazol-5-yl]benzamide]	≥ 80%	–	–	–	≥ 80%	–	≥ 80%	–	≥ 80%	≥ 80%	≥ 80%	≥ 50%	–
Cn1nc(-c2ccc(Cl)c(C(=O)NC3CC3)c2)cc1-c1c(C(F)(F)F)c(C(F)(F)C(F)(F)F)nn1C [Compound 39, 2-chloro-N-cyclopropyl-5-[1-methyl-5-[2-methyl-5-(1,1,2,2,2-pentafluoroethyl)-4-(trifluoromethyl)pyrazol-3-yl]pyrazol-3-yl]benzamide]	≥ 80%	–	–	–	≥ 80%	–	≥ 80%	–	≥ 80%	≥ 80%	≥ 80%	–	≥ 80%
Cn1nc(C(F)(F)C(F)(F)F)c(C(F)(F)F)c1-c1cc(-c2ccc(Cl)c(C(=O)NC3CC3)c2)sn1 [Compound 43, 2-chloro-N-cyclopropyl-5-[3-[2-methyl-5-(1,1,2,2,2-pentafluoroethyl)-4-(trifluoromethyl)pyrazol-3-yl]isothiazol-5-yl]benzamide]	≥ 80%	–	–	–	≥ 80%	–	≥ 80%	–	≥ 80%	≥ 80%	≥ 80%	≥ 50%	≥ 80%
Cn1nc(C(F)(F)C(F)(F)F)c(C(F)(F)F)c1-c1cc(-c2ccc(Cl)c(C(=O)NC3(C(=O)O)CC3)c2)on1 [Compound 75, 1-[[2-chloro-5-[3-[2-methyl-5-(1,1,2,2,2-pentafluoroethyl)-4-(trifluoromethyl)pyrazol-3-yl]isoxazol-5-yl]benzoyl]amino]cyclopropanecarboxylic acid]	≥ 80%	–	–	–	–	–	–	–	≥ 80%	–	≥ 80%	≥ 50%	≥ 80%
Cn1nc(C(F)(F)C(F)(F)F)c(C(F)(F)F)c1-c1cc(-c2ccc(Cl)c(C(=O)NC3(C(N)=S)CC3)c2)on1 [Compound 76, N-(1-carbamothioylcyclopropyl)-2-chloro-5-[3-[2-methyl-5-(1,1,2,2,2-pentafluoroethyl)-4-(trifluoromethyl)pyrazol-3-yl]isoxazol-5-yl]benzamide]	≥ 80%	–	–	–	≥ 80%	–	≥ 80%	–	≥ 80%	≥ 80%	≥ 80%	≥ 50%	≥ 80%
Cn1nc(C(F)(F)C(F)(F)F)c(C(F)(F)F)c1-c1cc(-c2ccc(Cl)c(C(=O)NC3(C(N)=O)CC3)c2)on1 [Compound 77, N-(1-carbamoylcyclopropyl)-2-chloro-5-[3-[2-methyl-5-(1,1,2,2,2-pentafluoroethyl)-4-(trifluoromethyl)pyrazol-3-yl]isoxazol-5-yl]benzamide]	≥ 80%	–	–	–	≥ 80%	–	≥ 80%	–	≥ 80%	≥ 80%	–	≥ 50%	≥ 80%
Cn1nc(C(F)(F)C(F)(F)F)c(C(F)(F)F)c1-c1cc(-c2ccc(Cl)c(C(=O)N[C@H]3C[C@@H]3C(F)(F)F)c2)on1 [Compound 80, 2-chloro-5-[3-[2-methyl-5-(1,1,2,2,2-pentafluoroethyl)-4-(trifluoromethyl)pyrazol-3-yl]isoxazol-5-yl]-N-[(1S,2S)-2-(trifluoromethyl)cyclopropyl]benzamide]	≥ 80%	–	–	–	≥ 80%	–	≥ 80%	–	≥ 80%	≥ 80%	≥ 80%	≥ 50%	–
Cn1nc(C(F)(F)C(F)(F)F)c(C(F)(F)F)c1-c1cc(-c2ccc(Cl)c(C(=O)NC3CC3F)c2)on1 (centres unmarked) [Compound 81, 2-chloro-N-(2-fluorocyclopropyl)-5-[3-[2-methyl-5-(1,1,2,2,2-pentafluoroethyl)-4-(trifluoromethyl)pyrazol-3-yl]isoxazol-5-yl]benzamide]	≥ 80%	–	–	–	≥ 80%	–	≥ 80%	–	≥ 80%	≥ 80%	≥ 80%	≥ 50%	≥ 80%
CCNC(=O)c1cc(-c2cc(-c3c(C(F)(F)F)c(C(F)(F)C(F)(F)F)nn3C)no2)ccc1Cl [Compound 90, 2-chloro-N-ethyl-5-[3-[2-methyl-5-(1,1,2,2,2-pentafluoroethyl)-4-(trifluoromethyl)pyrazol-3-yl]isoxazol-5-yl]benzamide]	≥ 80%	–	–	–	≥ 80%	–	≥ 80%	–	≥ 80%	≥ 80%	≥ 80%	≥ 50%	–
CNC(=O)c1cc(-c2cc(-c3c(C(F)(F)F)c(C(F)(F)C(F)(F)F)nn3C)no2)ccc1Cl [Compound 92, 2-chloro-N-methyl-5-[3-[2-methyl-5-(1,1,2,2,2-pentafluoroethyl)-4-(trifluoromethyl)pyrazol-3-yl]isoxazol-5-yl]benzamide]	≥ 80%	–	–	–	≥ 80%	–	≥ 80%	–	–	≥ 80%	≥ 80%	≥ 50%	≥ 80%
CC(C)NC(=O)c1cc(-c2cc(-c3c(C(F)(F)F)c(C(F)(F)C(F)(F)F)nn3C)no2)ccc1Cl [Compound 93, 2-chloro-N-isopropyl-5-[3-[2-methyl-5-(1,1,2,2,2-pentafluoroethyl)-4-(trifluoromethyl)pyrazol-3-yl]isoxazol-5-yl]benzamide]	≥ 80%	–	–	–	≥ 80%	–	≥ 80%	–	≥ 80%	≥ 80%	≥ 80%	–	≥ 80%
